Measured values taken from patent publication US10131681B2, “Aminophosphinic derivatives that can be used in the treatment of pain” (PHARMALEADS, priority 2008, dated 2018).

Columns and labels:
OF1 male mice [1] = assay: Formalin test (phase I), paw licking after oral administration; assay type: in vivo
Experimental: A/ Formalin Test (Phase I)
The molecules were studied at one time (90 min) for comparative tests and at two times, 90 and 150 minutes, so as to observe the period of action thereof.
The animals (OF1 male mice) were obtained from the Charles River breeding centre (France) and weighed […] at the start of the experiment. The weight of each mouse is taken into account for the administration of the product.
The test is based on the protocol described by S. HUNSKAAR et al., Formalin test in mice, a useful technique for evaluating mild analgesics, J. Neurosci. Methods (1995), 14, 69-75. The early part of the test ([…] after injecting formalin), is considered to reflect […], which is under study.
The mice (n=8) are placed individually in a transparent container (50×25 cm^2) and are acclimatised to this environment for 20 minutes. […] Each mouse is then immediately returned to the test container and pain (nociceptive) responses are measured for 5 minutes (early phase). Only the number of times the paw is licked is counted. […]
The analgesic action of the product is measured by the decline in the number of times the injured paw is licked, compared to the number of times the animal receiving the vehicle only licks its paw. The total (discontinuous) licking time, expressed in seconds for each mouse, is counted for […]. […]

[2] = Stability in solution of a prior art pro-drug in a parenteral vehicle, followed by HPLC; assay type: physicochemical; conditions: ethanol/cremophor/H2O mixture (1:1:8)
Experimental: The study in solution of a compound according to the prior art was conducted as follows:
The compound according to the prior art is placed in solution in various mixtures used for parenteral administration, the solution subsequently being followed by HPLC (Kromasil C18 4.5*250 mm column, 50% CH3CN (0.1% TFA)/50% H2O (0.1% TFA)) to determine the composition of the solution. In any case, the formation of both products, free phosphonic acid (active compound) and the transfer product, is observed over time as illustrated in the diagram below: […]

OF1 male mice [3] = assay: Von Frey test, mechanical allodynia after partial ligation of the sciatic nerve; assay type: in vivo
Experimental: (§1) This test was described in detail by A. B. Malmberg and A. I. Basbaum, Partial Sciatic nerve injury in the mouse as a model of neuropathic pain: behavioural and neuroanatomical correlates. Pain, (1998) 76, 215-222.
(§2) It was performed on OF1 male mice (Charles River, n=39), weighing 18 to 20 g, by partial ligation of the sciatic nerve on the ipsilateral side. The animals are tested over a period of 3 to 26 days after the operation.
The mechanical allodynia is measured as described by S. R. Chaplan et al., Quantitative assessment of tactile allodynia in the rat paw, J. Neurosci. Meth. (1994), 53, 55-63. The ipsilateral (lesion) and contralateral (control) paws are tested as above, the mechanical anti-allodynia effect being measured using the Von Frey method (Malmerg A. B. and Basbaum A. I., 1998, Pain, 76, 215-222) with filaments of increasing size likewise applying an increasing pressure.

OF1 male mice [4] = assay: Plantar test, thermal hyperalgesia after partial ligation of the sciatic nerve; assay type: in vivo; conditions: 50 mg/kg oral
Experimental: as §1, §2
The hyperalgesia was measured according to the method described by K. Hargreaves et al., A new sensitive method for measuring thermal nociception in cutaneous hyperalgesia, Pain (1988), 32, 77-88, using the “Plantar test” device (Bioseb, France) as the heat source. The intensity of the nociceptive stimulus is calibrated at 8-10 s with an automatic cut-off time of 20 seconds. The mean heat-induced paw withdrawal was measured on the ipsilateral (damaged nerve) and contralateral (intact nerve) paws. Each measurement is made 3 times on each paw.

CCOC(=O)OC(C)OC(=O)[C@H](C)NC(=O)[C@H](Cc1ccc(-c2ccccc2)cc1)CP(=O)(O)[C@H](C)NC(=O)OC(C)OC(=O)C(C)C (some centres unmarked) [Example 8, 2-(2-biphenyl-4-ylmethyl-3-{hydroxy-[1-(1-isobutyryloxy-ethoxycarbonylamino)-ethyl]-phosphinoyl}-propionylamino)-propionic acid 1-ethoxycarbonyloxyethyl ester]
analgesic activity at 90 minutes (OF1 male mice [1]; 50 mg/kg per os): very significant analgesic activity

CCOC(=O)[C@H](C)NC(=O)[C@H](Cc1ccc(-c2ccccc2)cc1)CP(=O)(OC(C)OC(=O)C(C)C)[C@H](C)N (some centres unmarked) [prior art compound]
% initial compound ([2]; 0 hrs after solubilisation): 90.5%
% initial compound ([2]; 3 hrs after solubilisation): 82.0%
% initial compound ([2]; 6 hrs after solubilisation): 75.7%
% initial compound ([2]; 96 hrs after solubilisation): 25.1%

CCOC(=O)OC(C)OC(=O)[C@H](C)NC(=O)[C@H](Cc1ccc(-c2ccccc2)cc1)CP(=O)(O)[C@H](C)N.O=CO (some centres unmarked) [reference molecule, reference compound]
analgesic activity at 90 minutes (OF1 male mice [1]; 100 mg/kg per os): no activity

CC(OC(=O)N[C@@H](C)P(=O)(O)C[C@@H](Cc1ccc(-c2ccccc2)cc1)C(=O)N[C@@H](C)C(=O)O)OC(=O)C(C)C (some centres unmarked) [Example 4, 2-(2-biphenyl-4-ylmethyl-3-{hydroxy-[1-(1-isobutyryloxy-ethyloxycarbonylamino)-ethyl]-phosphinoyl}-propionylamino)-propionic acid]
anti-allodynia effect used alone (OF1 male mice [3]; 10 mg/kg oral, 60 min): inactive

CC(OC(=O)N[C@@H](C)P(=O)(O)C[C@@H](Cc1ccc(-c2ccccc2)cc1)C(=O)N[C@@H](C)C(=O)OCc1ccccc1)OC(=O)C(C)C (some centres unmarked) [Example 3, 2-(2-biphenyl-4-ylmethyl-3-{hydroxy-[1-(1-isobutyryloxy-ethoxycarbonylamino)-ethyl]-phosphinoyl}-propionylamino)-propionic acid benzyl ester]
time of peak anti-hyperalgesia effect (OF1 male mice [4]): 90 min
paw withdrawal, mean of contralateral paws (OF1 male mice [4]; 90 min, 14 days after surgery, contralateral paw): 9.4 s
reduction in thermal hyperalgesia (OF1 male mice [4]; period 45-120 min, ipsilateral paw): 65-100%
time of peak anti-allodynia effect (OF1 male mice [3]; 50 mg/kg oral): 60 min
long-term anti-allodynia effect (OF1 male mice [3]; 50 mg/kg oral, 45-120 min): significant
anti-allodynia effect at peak, % of the peak response (untreated control) (OF1 male mice [3]; 50 mg/kg oral, 60 min): 75%

NCC1(CC(=O)O)CCCCC1 [gabapentin, reference compound]
anti-allodynia effect used alone (OF1 male mice [3]; 30 mg/kg oral, 60 min): inactive
